Measured values reported in patent US20260224532A1, “ESTROGEN RECEPTOR BETA LIGANDS FOR THE PREVENTION AND TREATMENT OF MULTIPLE SCLEROSIS (MS) AND OTHER DEMYELINATING, INFLAMMATORY AND NEURODEGENERATIVE DISEASES” (The Board of Trustees of the University of Illinois, priority 2023, published 2026).
Entries after “also recorded” stand apart in the source; their conditions may differ. Read-outs that look alike come from different tables or passages of the source.

Tests used:
[1] = test system: Primary OPCs; experiment: Primary OPC culture: MBP+ OL differentiation and total cell count (DAPI); format: cell-based, mouse; conditions: for total number of cells (DAPI) / number of MBP+ OLs with increased percentage of branched OLs, compared to vehicle-treated cells: 10 nM; for MBP expression / number of MBP+ OLs, compared to vehicle-treated cells: 1 nM
Description: Primary OPC Cultures: Primary OPCs, isolated from postnatal day P1 C57BL/6 male and female mouse cortices as described previously, are treated with 10 nM ligands in differentiating medium for […] (Tiwari-Woodruff et al., 2001; Tiwari-Woodruff et al., 2006). Primary OPC are cultured into 8-well chamber slides (three wells per condition, 2.5×10^5 cells/well) for three days to attach and five days in differentiating media (consisting of DMEM-F12 with triiodothyronine- and thyroxine-containing Sato as well as penicillin, streptomycin, insulin, N-acetyl-L-cysteine, forskolin, ciliary neurotrophic factor, neurotrophin-3, and platelet-derived growth factor […] (Tiwari-Woodruff et al., 2001)). A positive control (IndC1), a negative control (Vehicle consisting of the media+EtOH mixture used to dissolve IndCl), and a normal control (differentiating media alone) are used for comparison. At the end of the treatment period, cells are fixed, stained by immunocytochemistry (primary antibody polyclonal chicken myelin basic protein (MBP, Millipore AB9348), and co-stained with nuclear stain-DAPI), and imaged with an Olympus BX61 confocal microscope (Olympus America Inc., Center Valley, PA) at 10× magnification (3 images per well). Cells are counted using the ImageJ multipoint tool, and counts are then divided by the image area (mm^2). Average cell density for each condition is then divided by the normal condition cell density. Analysis of OL differentiation consists of counting the number of MBP+ cells and process extensions that are longer than the respective cell-body diameter and tracking the number of highly branched MBP+ cells (with three or more processes) (Monnerie et al., 2017). Statistics are performed using GraphPad Prism 6 Software (La Jolla, CA). One-way ANOVA with Tukey's posthoc test for multiple comparisons is used to generate p-values, and data are presented as mean±SEM (with α≤0.05).
FIG. 1A-1D show the effects of treatment with the 7-substituted indazole compounds on the expression of myelin basic protein in OLs (MBP^+-OLs, top two panels) as an indication of murine oligodendrocyte precursor cell (OPC) differentiation, as well as the count of the total cells as an indication of cell proliferation/survival (DAPI nucleus stain, bottom two panels). The cells were treated with the listed compounds at 10 nM (FIG. 1A, 1B) and at 1 nM (FIG. 1C, 1D).

[2] = molecular target: T1, purified, full length human ERβ (Homo sapiens, UniProt Q92731); experiment: Relative binding affinity (RBA) radiometric competitive binding assay, ERβ; conditions: for β/α (ERβ/ERα selectivity): ratio of RBA ERβ to RBA ERα; for RBA ERβ: relative binding affinity, E2 (estradiol) is 100%, tritiated estradiol tracer; for selectivity of binding to ERβ vs ERα: text statement of the β/α ratio
T1 construct: purified, full length human ERα and ERβ
T1 sequence (Q92731 whole entry): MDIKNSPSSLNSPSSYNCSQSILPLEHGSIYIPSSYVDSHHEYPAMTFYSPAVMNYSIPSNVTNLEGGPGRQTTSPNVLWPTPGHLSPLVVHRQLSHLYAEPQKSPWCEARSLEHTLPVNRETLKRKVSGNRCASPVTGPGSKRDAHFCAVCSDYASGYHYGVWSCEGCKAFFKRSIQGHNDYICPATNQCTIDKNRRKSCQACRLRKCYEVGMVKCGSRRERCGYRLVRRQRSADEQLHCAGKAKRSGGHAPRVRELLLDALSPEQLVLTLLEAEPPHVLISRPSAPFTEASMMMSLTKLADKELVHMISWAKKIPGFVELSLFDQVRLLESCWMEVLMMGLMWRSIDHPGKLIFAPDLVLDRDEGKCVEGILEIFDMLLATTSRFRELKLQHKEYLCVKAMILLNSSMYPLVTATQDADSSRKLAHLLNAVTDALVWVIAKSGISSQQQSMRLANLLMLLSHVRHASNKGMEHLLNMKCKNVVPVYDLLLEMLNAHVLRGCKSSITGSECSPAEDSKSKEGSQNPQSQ

[3] = molecular target: T2, purified, full length human ERα (Homo sapiens, UniProt P03372); experiment: Relative binding affinity (RBA) radiometric competitive binding assay, ERα; conditions: relative binding affinity, E2 (estradiol) is 100%; tritiated estradiol tracer
T2 construct: purified, full length human ERα and ERβ
T2 sequence (P03372 1-595): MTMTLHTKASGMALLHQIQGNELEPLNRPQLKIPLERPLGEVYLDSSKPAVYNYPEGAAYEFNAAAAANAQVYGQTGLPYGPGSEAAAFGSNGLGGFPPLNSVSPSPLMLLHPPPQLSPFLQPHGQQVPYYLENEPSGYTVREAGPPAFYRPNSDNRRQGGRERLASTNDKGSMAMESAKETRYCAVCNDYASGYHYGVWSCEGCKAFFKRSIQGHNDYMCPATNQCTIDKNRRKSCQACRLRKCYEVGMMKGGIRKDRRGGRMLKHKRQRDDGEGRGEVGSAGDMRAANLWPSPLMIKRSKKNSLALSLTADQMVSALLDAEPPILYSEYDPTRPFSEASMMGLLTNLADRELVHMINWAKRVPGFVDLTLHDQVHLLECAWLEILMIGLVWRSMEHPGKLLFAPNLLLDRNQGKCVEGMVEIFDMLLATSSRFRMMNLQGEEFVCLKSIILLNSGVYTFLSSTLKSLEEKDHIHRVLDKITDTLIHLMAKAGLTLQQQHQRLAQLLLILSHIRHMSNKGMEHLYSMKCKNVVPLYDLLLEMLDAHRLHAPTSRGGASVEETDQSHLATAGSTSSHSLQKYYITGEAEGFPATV

[4] = test system: Cuprizone-Induced Demyelinated Mouse Model; experiment: Myelin recovery in the cuprizone-induced demyelinated mouse model (MOG IHC, Corpus Callosum); format: in vivo, C57BL/6 female mice
Description: The Cuprizone assay of demyelination-remyelination was conducted by the methods described previously (Moore et al. 2013; Crawford et al, 2009a,b). A group of animals was on normal diet (N groups). The remainder of the mice were divided into groups of 5 and all of these groups of mice were fed cuprizone diet at (0.2% cuprizone mixed in chow). After 6 weeks on cuprizone diet-induced demyelination, a group of 5 mice were perfused (DM group). The other groups of mice were switched to normal diet for 1.5 weeks to initiate remyelination and were treated with either (i) Vehicle (SC+V) or (ii) test compound at a dose of 5 mg/kg. […] After 1.5 weeks of normal diet-induced remyelination, the mice were perfused. Brains were collected, cryoprotected, embedded, cut, and IHC for myelin oligodendrocyte glycoproteins (MOG) was performed. Cuprizone study results after 1.5-weeks treatment with the designated 7-substituted compounds via SC administration following 6 weeks cuprizone treatment of (C57BL/6) female mice are shown in FIG. 5. The height of each bar graph represents level of myelination assessed by the expression of MOG in the white matter tracks of the Corpus Callosum area quantified by immunohistochemical analysis (IHC) after staining with a MOG antibody. N: Normal diet, DM: Demyelinated status after 6 weeks cuprizone treatment, SC-Veh: Spontaneous remyelination after injection with matrix in saline solution only (without compound; recovery is only about 40%). (Mice: ~2 months age, SC: Subcutaneous injection, n=5). Cuprizone study results for the 3-weeks treatment with the 6-substituted compound 17 via SC administration following the 6 weeks of 0.2% cuprizone treatment of C57BL/6 female mice are shown in FIG. 6. The height of each bar graph represents level of myelination assessed by the expression of MOG in the white matter tracks of the Corpus Callosum area quantified by immunohistochemical analysis (IHC) after staining with a MOG antibody. N: Normal diet, DM: Demyelinated status after 6 weeks cuprizone treatment, SC-Veh: Spontaneous remyelination after injection with matrix in saline solution only (without compound; recovery is only about 40%). (Mice: ~2 months age, SC: Subcutaneous injection, n=5~6). […] (Mice: ~2 months age, s.c.: Subcutaneous administration, n=5).

[5] = test system: uterus; experiment: Uterotrophic effect (uterine weight) in non-ovariectomized mice of the cuprizone study; format: in vivo; conditions: daily SC 5 mg/kg
Description: The uterus was taken from the mice treated with compounds 5 and 7 from the recovery assessment study using the Cuprizone-induced demyelination model. Uterine weight for each compound is represented by % uterus/body weight.
Estrogens increase uterine weight by acting primarily through ERα (Hewitt and Korach, 2003).

[6] = 2-hour single-point pharmacokinetic (PK) study, blood and brain; format: in vivo, C57BL/6 female mice; conditions: for Kp at 2 h: female, C57BL/6, mouse, brain / blood
Description: The 2-Hour single-point pharmacokinetics for IndCl-7-Cl (compound 7), IndCl-7-Br-3′-OH (compound 12), and IndCl-7-Cl-3′-F (compound 14) was examined in (two and half month old C57BL/6 female) mice after single subcutaneous (SC) injection or oral gavage (PO) in 0.1 mL at a dose 5 mg/kg for SC and 25 mg/kg for PO administration. The vehicle for SC administration was 0.1 mL 10% ethanol and 90% Miglyol 812N or 10% DMSO saline and for PO administration, 0.1 mL 2-hydroxypropyl-beta-cyclodextrin [HPCD]/40% aqueous solution MW ~1540. Two hours after injection blood and brain were collected and processed for quantification of the administered compound at the University of Illinois Metabolomics Core Facility by liquid chromatography-mass spectrometry (LC-MS/MS). The bar graphs indicate the analyzed concentration in the blood and the brain in nM units for each sample and each administered method. The brain uptake ratio over the blood of compound 7 (IndCl-7-C1) in the PO and SC pharmacokinetic study is as high as ~7 and ~6, respectively.
For subcutaneous (SC) injection, the compound made up as a homogeneous suspension in 10% ethanol and 90% Miglyol 812N (vehicle; Sasol) and a 0.1 mL dose was administered by SC injection at a dose of 5 mg/kg body weight. For PO administration, the compound was dissolved into 40% (2-Hydroxypropyl)-β-cyclodextrin (Mw~ 1540)(HP-CD) and administered via oral gavage in a volume of 0.1 mL at a dose of 25 mg/kg body weight.

[7] = SC 5 mg/kg, 1.5-weeks treatment after 6 weeks cuprizone

Compound	β/α (ERβ/ERα selectivity) [2]	RBA ERα [3] [%]	RBA ERβ [2] [%]	number of MBP+ OLs with increased percentage of branched OLs, compared to vehicle-treated cells [1]	remyelination (MOG expression in Corpus Callosum) [4, 7]	MBP expression / number of MBP+ OLs, compared to vehicle-treated cells [1]	also measured
Oc1cc(Cl)c2nn(-c3ccc(O)c(F)c3)c(Cl)c2c1 [Compound 14, 3,7-dichloro-2-(3-fluoro-4-hydroxyphenyl)-2H-indazol-5-ol]	38.3	0.86	32.96	significant increase	somewhat less remyelination	–	–
Oc1ccc(-n2nc3c(Cl)cc(O)cc3c2Cl)cc1 [Compound 7, 3,7-dichloro-2-(4-hydroxyphenyl)-2H-indazol-5-ol]	45	6.9 ± 2.4	–	significant increase	accelerates remyelination, reaching levels at or above the normal myelin level	particularly significant increase	uterotrophic effect, uterine weight (% uterus/body weight) vs vehicle [5]: did not show uterotrophic effects significantly different from mice treated with vehicle alone; also recorded: did not stimulate the uterus weight significantly; concentration in the brain after PO administration compared with SC injection ([6]; PO 25 mg/kg vs SC 5 mg/kg, 2 hours): markedly higher; brain uptake (in words) ([6]; PO 25 mg/kg, 2 hours): selective high brain uptake; brain uptake (in words) ([6]; SC 5 mg/kg, 2 hours): selective high brain uptake; Kp at 2 h ([6]; PO 25 mg/kg, 2 hours after dosing, read-out: brain uptake ratio over the blood): ~7; Kp at 2 h ([6]; SC 5 mg/kg, 2 hours after dosing, read-out: brain uptake ratio over the blood): ~6
Oc1ccc(-n2nc3cc(F)c(O)cc3c2Cl)cc1 [Compound 17, 3-chloro-6-fluoro-2-(4-hydroxyphenyl)-2H-indazol-5-ol]	48.7	0.968	47.11	significant increase	–	good MBP expression; also recorded: significant increase	Kp at 2 h ([6]; PO 25 mg/kg, 2 hours, n=3, read-out: concentration in brain relative to concentration in blood): 3; remyelination (MOG expression in Corpus Callosum) ([4]; SC, 3-weeks treatment after 6 weeks of 0.2% cuprizone): recover above the normal level; also recorded: accelerate remyelination to reach a level at or above the normal level
Oc1ccc(-n2cc3cc(O)cc(Br)c3n2)cc1 [Compound 1, 7-bromo-2-(4-hydroxyphenyl)-2H-indazol-5-ol]	131	0.244	32.01 ± 0.09	significant increase	–	–	selectivity of binding to ERβ vs ERα [2]: 131 fold
Oc1ccc(-n2nc3c(Br)cc(O)cc3c2Cl)cc1 [Compound 3, 7-bromo-3-chloro-2-(4-hydroxyphenyl)-2H-indazol-5-ol]	18	15.57	–	–	–	–	total number of cells (DAPI) [1]: reduction
Oc1ccc(-n2nc3c(Br)cc(O)cc3c2I)cc1 [Compound 5, 7-bromo-2-(4-hydroxyphenyl)-3-iodo-2H-indazol-5-ol]	23	6.95	–	significant increase	somewhat less remyelination	–	uterotrophic effect, uterine weight (% uterus/body weight) vs vehicle [5]: did not show uterotrophic effects significantly different from mice treated with vehicle alone; also recorded: did not stimulate the uterus weight significantly

More lines, main results first:

β/α (ERβ/ERα selectivity) [2]	RBA ERα [3] [%]	RBA ERβ [2] [%]	Compound	number of MBP+ OLs with increased percentage of branched OLs, compared to vehicle-treated cells [1]	remyelination (MOG expression in Corpus Callosum) [4, 7]	MBP expression / number of MBP+ OLs, compared to vehicle-treated cells [1]	also measured
70.1	2.27	–	Oc1ccc(-n2nc3c(Br)cc(O)cc3c2F)cc1 [Compound 2, 7-bromo-3-fluoro-2-(4-hydroxyphenyl)-2H-indazol-5-ol]	–	–	–	total number of cells (DAPI) [1]: reduction
246	0.16	39.4	Oc1cccc(-n2nc3c(Br)cc(O)cc3c2Cl)c1 [Compound 12, 7-Bromo-3-chloro-2-(3-hydroxyphenyl)-2H-indazol-5-ol]	–	does not accelerate remyelination	–	selectivity of binding to ERβ vs ERα [2]: 246 fold
4.64	0.545	2.53	Cc1cc(O)ccc1-n1nc2cc(F)c(O)cc2c1Cl [Compound 18, 3-Chloro-6-fluoro-2-(4-hydroxy-2-methylphenyl)-2H-indazol-5-ol]	significant increase	–	significant increase	–
